Laboratory results as given in patent US20190192699A1, “NUCLEAR IMAGING AND RADIOTHERAPEUTICS AGENTS TARGETING CARBONIC ANHYDRASE IX AND USES THEREOF” (THE JOHNS HOPKINS UNIVERSITY, priority 2016, published 2019).
Entries after “also recorded” stand apart in the source; their conditions may differ.

What was measured:
SK-RC-52 xenografts [1] = experiment: Biodistribution of [111In]XYIMSR-01 and [177Lu]XYIMSR-01; type: in vivo, mice
Protocol: (§1) Cell Lines and Mouse Models. Animal experiments were performed in accordance with protocols approved by the Johns Hopkins Animal Care and Use Committee (ACUC). Six-week-old female NOD/SCID mice were purchased from the Animal Resource Core of the Sidney Kimmel Comprehensive Cancer Center of Johns Hopkins and were subcutaneously injected in the lower left flank or upper right flank with 1×10^6 SK-RC-52 cells in RPMI 1640 GlutaMAX™ media (Life Technologies, Frederick, Md.) supplemented with 1% fetal bovine serum (FBS). Mice were monitored for tumor size and used for SPECT/CT imaging when the size of the tumor reached 100 mm^3.
Biodistribution of [^111In]XYIMSR-01 and [^177Lu]XYIMSR-01. Mice bearing SK-RC-52 xenografts at lower left flank were injected intravenously with 740 kBq (20 μCi) of [^111In]XYIMSR-01, or [^177Lu]XYIMSR-01 in 200 μL of PBS. For competitive blocking, same tumor bearing mice were injected with 740 kBq (20 μCi) of [^111In]XYIMSR-01 and 200 nmole of 1 in 200 μL of PBS. At 1 h, 4 h, 8 h, 24 h and 48 h post-injection, mice were sacrificed by cervical dislocation and the blood was immediately collected by cardiac puncture. Heart, lungs, pancreas, spleen, fat, brain, muscle, small intestines, liver, stomach, kidney, urinary bladder, and tumor were collected. Each organ was weighed and the tissue radioactivity was measured with an automated gamma counter (1282 Compugamma CS, Pharmacia/LKBNuclear, Inc., Mt. Waverly, Vic. Australia). The percentage of injected dose per gram of tissue (% ID/g) was calculated by comparison with samples of a standard dilution of the initial dose. All measurements were corrected for radioactive decay.
Data were expressed as mean±standard deviation (SD). Prism software (GraphPAD, San Diego, Calif.) was used to determine statistical significance. Statistical significance was calculated using a paired t test. P-values […] were considered significant.

SK-RC-52 xenografts [2] = experiment: Radio-therapy of [177Lu]XYIMSR-01, tumor growth; type: in vivo, mice; conditions: 11.1 MBq (300 μCi) and 18.5 MBq (500 μCi) i.v., n=4
Protocol: as §1
Radio-therapy of [^177Lu]XYIMSR-01. Mice bearing SK-RC-52 xenografts at lower left flank were injected intravenously with PBS, 11.1 MBq (300 μCi) and 18.5 MBq (500 μCi) of [^177Lu]XYIMSR-01 in 200 μL of PBS (n=4). Size of the tumors was measured twice a week after the injection. […] The P-values were 0.042 and 0.031 for the 11.1 and […] doses, respectively.

[3] = tested on: CAIX-expressing SK-RC-52 tumors; experiment: SPECT/CT imaging of [177Lu]XYIMSR-01; type: in vivo, mice; conditions: intravenous
Protocol: as §1
SPECT/CT imaging of [^177Lu]XYIMSR-01. Mice were injected with 1.7 mCi of [^177Lu]XYIMSR-01 in 250 uL of PBS (pH7.0) intravenously, anesthetized under 3% isofluorane prior to being placed on the scanner bed and kept warm with an external light source while being scanned. Isofluorane levels were decreased to 1% throughout the scanning process in order to ensure mouse survival. Imaging of mice was then carried out using a CT-equipped Gamma Medica-Ideas SPECT scanner (Northridge, Calif.). A CT scan was performed at the end of each SPECT scan for anatomical co-registration. CT and SPECT scans were performed at 1, 4, 8, 24, and 48 hrs post injection of the [^177Lu]XYIMSR-01. Obtained data sets were subsequently reconstructed using the provided Gamma Medica-Ideas software. […]

CAIX = CAIX (Homo sapiens, UniProt Q16790); experiment: In vitro uptake of [177Lu]XYIMSR-01; type: cell-based; design: host or cells: ccRCC tumours in patients
[4] = 24 hr + Block (200 nmole of 1 co-injected)
[5] = 48 hr + Block (200 nmole of 1 co-injected)

With `CC(CCC(=O)N[C@@H](CC(=O)N[C@@H](CC(=O)N[C@@H](CCCCn1cc(CCCC(=O)Nc2nnc(S(N)(=O)=O)s2)nn1)C(=O)NCCOCCOCCNC(=O)CN1CCN(CC(=O)[O-])CCN(CC(=O)[O-])CCN(CC(=O)[O-])CC1)C(=O)O)C(=O)O)(c1ccc(O)cc1)c1ccc(O)cc1.[177Lu+3]` [[^177Lu]XYIMSR-01] the “Biodistribution: Small intestine” value (SK-RC-52 xenografts [1]; [4]) was 0.18 ± 0.07 % ID/g, the “Biodistribution: Spleen” value (SK-RC-52 xenografts [1]; [4]) was 0.38 ± 0.32 % ID/g and the “Biodistribution: Stomach” value (SK-RC-52 xenografts [1]; [4]) was 0.21 ± 0.07 % ID/g. For the same molecule, the “Biodistribution: Tumor” value (SK-RC-52 xenografts [1]; [4]) was 1.70 ± 0.79 % ID/g, the Tumor/Blood ratio (SK-RC-52 xenografts [1]; [4]) was 42.0 ± 20.9 and the Tumor/Kidney ratio (SK-RC-52 xenografts [1]; [4]) was 1.4 ± 0.6. The Tumor/Muscle ratio (SK-RC-52 xenografts [1]; [4]) was 58.6 ± 25.3, the “Biodistribution: Bladder” value (SK-RC-52 xenografts [1]; 24 hr post-injection) was 1.29 ± 1.10 % ID/g and the “Biodistribution: Blood” value (SK-RC-52 xenografts [1]; 24 hr post-injection) was 0.02 ± 0.01 % ID/g. The “Biodistribution: Brain” value (SK-RC-52 xenografts [1]; 24 hr post-injection) was 0.28 ± 0.10 % ID/g, the “Biodistribution: Fat” value (SK-RC-52 xenografts [1]; 24 hr post-injection) was 0.05 ± 0.04 % ID/g and the “Biodistribution: Heart” value (SK-RC-52 xenografts [1]; 24 hr post-injection) was 0.28 ± 0.14 % ID/g. For the same molecule, the “Biodistribution: Kidney” value (SK-RC-52 xenografts [1]; 24 hr post-injection) was 3.11 ± 1.59 % ID/g, the “Biodistribution: Liver” value (SK-RC-52 xenografts [1]; 24 hr post-injection) was 0.47 ± 0.21 % ID/g and the “Biodistribution: Lung” value (SK-RC-52 xenografts [1]; 24 hr post-injection) was 1.48 ± 0.59 % ID/g. The “Biodistribution: Muscle” value (SK-RC-52 xenografts [1]; 24 hr post-injection) was 0.10 ± 0.05 % ID/g, the “Biodistribution: Pancreas” value (SK-RC-52 xenografts [1]; 24 hr post-injection) was 0.16 ± 0.07 % ID/g and the “Biodistribution: Small intestine” value (SK-RC-52 xenografts [1]; 24 hr post-injection) was 0.96 ± 0.32 % ID/g. The “Biodistribution: Spleen” value (SK-RC-52 xenografts [1]; 24 hr post-injection) was 0.20 ± 0.07 % ID/g, the “Biodistribution: Stomach” value (SK-RC-52 xenografts [1]; 24 hr post-injection) was 1.02 ± 0.56 % ID/g and the “Biodistribution: Tumor” value (SK-RC-52 xenografts [1]; 24 hr post-injection) was 12.51 ± 3.02 % ID/g. It also gave a Tumor/Blood ratio (SK-RC-52 xenografts [1]; 24 hr post-injection) of 607.4±200.7, a Tumor/Kidney ratio (SK-RC-52 xenografts [1]; 24 hr post-injection) of 4.5±1.4 and a Tumor/Muscle ratio (SK-RC-52 xenografts [1]; 24 hr post-injection) of 128.4±25.4. The “Biodistribution: Bladder” value (SK-RC-52 xenografts [1]; [5]) was 0.28 ± 0.09 % ID/g, the “Biodistribution: Blood” value (SK-RC-52 xenografts [1]; [5]) was 0.04 ± 0.07 % ID/g and the “Biodistribution: Brain” value (SK-RC-52 xenografts [1]; [5]) was 0.02 ± 0.00 % ID/g. For the same molecule, the “Biodistribution: Fat” value (SK-RC-52 xenografts [1]; [5]) was 0.02 ± 0.01 % ID/g, the “Biodistribution: Heart” value (SK-RC-52 xenografts [1]; [5]) was 0.04 ± 0.01 % ID/g and the “Biodistribution: Kidney” value (SK-RC-52 xenografts [1]; [5]) was 0.39 ± 0.05 % ID/g. For the same molecule, the “Biodistribution: Liver” value (SK-RC-52 xenografts [1]; [5]) was 0.23 ± 0.04 % ID/g, the “Biodistribution: Lung” value (SK-RC-52 xenografts [1]; [5]) was 0.18 ± 0.05 % ID/g and the “Biodistribution: Muscle” value (SK-RC-52 xenografts [1]; [5]) was 0.01 ± 0.00 % ID/g. For the same molecule, the “Biodistribution: Pancreas” value (SK-RC-52 xenografts [1]; [5]) was 0.02 ± 0.00 % ID/g, the “Biodistribution: Small intestine” value (SK-RC-52 xenografts [1]; [5]) was 0.05 ± 0.01 % ID/g and the “Biodistribution: Spleen” value (SK-RC-52 xenografts [1]; [5]) was 0.15 ± 0.06 % ID/g. For the same molecule, the “Biodistribution: Stomach” value (SK-RC-52 xenografts [1]; [5]) was 0.09 ± 0.02 % ID/g, the “Biodistribution: Tumor” value (SK-RC-52 xenografts [1]; [5]) was 0.65 ± 0.10 % ID/g and the Tumor/Blood ratio (SK-RC-52 xenografts [1]; [5]) was 42.7 ± 23.7. For the same molecule, the Tumor/Kidney ratio (SK-RC-52 xenografts [1]; [5]) was 1.7 ± 0.3, the Tumor/Muscle ratio (SK-RC-52 xenografts [1]; [5]) was 62.5 ± 34.5 and the “Biodistribution: Bladder” value (SK-RC-52 xenografts [1]; 48 hr post-injection) was 0.20 ± 0.01 % ID/g. For the same molecule, the “Biodistribution: Blood” value (SK-RC-52 xenografts [1]; 48 hr post-injection) was 0.04 ± 0.01 % ID/g, the “Biodistribution: Brain” value (SK-RC-52 xenografts [1]; 48 hr post-injection) was 0.17 ± 0.03 % ID/g and the “Biodistribution: Fat” value (SK-RC-52 xenografts [1]; 48 hr post-injection) was 0.03 ± 0.01 % ID/g. The “Biodistribution: Heart” value (SK-RC-52 xenografts [1]; 48 hr post-injection) was 0.12 ± 0.17 % ID/g, the “Biodistribution: Kidney” value (SK-RC-52 xenografts [1]; 48 hr post-injection) was 0.76 ± 0.11 % ID/g and the “Biodistribution: Liver” value (SK-RC-52 xenografts [1]; 48 hr post-injection) was 0.19 ± 0.03 % ID/g. The “Biodistribution: Lung” value (SK-RC-52 xenografts [1]; 48 hr post-injection) was 0.90 ± 0.05 % ID/g, the “Biodistribution: Muscle” value (SK-RC-52 xenografts [1]; 48 hr post-injection) was 0.04 ± 0.01 % ID/g and the “Biodistribution: Pancreas” value (SK-RC-52 xenografts [1]; 48 hr post-injection) was 0.06 ± 0.01 % ID/g. The “Biodistribution: Small intestine” value (SK-RC-52 xenografts [1]; 48 hr post-injection) was 0.20 ± 0.05 % ID/g, the “Biodistribution: Spleen” value (SK-RC-52 xenografts [1]; 48 hr post-injection) was 0.13 ± 0.04 % ID/g and the “Biodistribution: Stomach” value (SK-RC-52 xenografts [1]; 48 hr post-injection) was 0.35 ± 0.04 % ID/g. For the same molecule, the “Biodistribution: Tumor” value (SK-RC-52 xenografts [1]; 48 hr post-injection) was 5.82 ± 2.14 % ID/g, the Tumor/Blood ratio (SK-RC-52 xenografts [1]; 48 hr post-injection) was 200.2 ± 101.7 and the Tumor/Kidney ratio (SK-RC-52 xenografts [1]; 48 hr post-injection) was 7.1 ± 1.8. The Tumor/Muscle ratio (SK-RC-52 xenografts [1]; 48 hr post-injection) was 141.5 ± 71.7, the “tumor growth compared with control non-treated mice” value (SK-RC-52 xenografts [2]) was “Delays in tumor growth; also recorded: significant therapeutic effect in controlling tumor growth” and the “SPECT/CT tumor imaging finding” value [3] was “radiotracer uptake in tumor as early as 1 h post-injection; also recorded: tumor visualization by 1 h post-injection”. The uptake in vitro (CAIX) was “CAIX specific uptake in vitro”.
